Each structure is given as a SMILES string.

The nature of data set [1]: Fluorescence quantum yield determination. The class given is physicochemical. To be noted: probe alone; aqueous PBS buffer solution (pH 7.4). The procedure:
The quantum yield was calculated according to the equation:^3 (Φsample=Φstandard*(Isample/Istandard)*(Astandard/Asample)*(nsample/nstandard)^2) Φ denotes the quantum yield; I denotes the area under the fluorescence band; A denotes the absorbance at the excitation wavelength; n denotes the refractive index of the solvent.
For quantum yield of SSP1, it was determined using 7-hydroxycoumarin as a standard by comparing the area under the corrected emission spectrum of the test sample with that of a solution of 7-hydroxycoumarin excited at 330 nm in sodium phosphate buffer (0.1 M; pH 7.4), which has a quantum efficiency of 0.76 according to the literature.
For quantum yield of SSP2, Quantum yield was determined using fluorescein as a standard by comparing the area under the corrected emission spectrum of the test sample with that of a solution of fluorescein excited at 490 nm in 0.1 N NaOH, which has a quantum efficiency of 0.85 according to the literature.

The nature of data set [2]: Fluorescence response of probes to Na2S2 (H2S2 equivalent) in PBS buffer with CTAB. To be noted: probe 5.0 μM, Na2S2 25 μM, 50 mM PBS pH 7.4, 1 mM CTAB, rt. As to the method:
The stock solution of SSP1 (1 mM) and SSP2 (1 mM) were prepared in CH3CN, respectively. The solutions of various testing species were prepared from Cysteine (Cys), GSH, Homocysteine (Hcy), Glutathione disulfide (GSSG), Na2S.9H2O, Na2S2O3, Na2SO3, Na2SO4, Na2S2 in 50 mM PBS buffer. The stock solution of Cetrimonium bromide (CTAB, 100 mM) and S8 (10 mM) were prepared in EtOH, respectively. The stock solution of Cys-polysulfide (10 mM) was prepared in CH3CN. All the test solution need to be freshly prepared.
Unless otherwise noted, all the measurements were carried out for 10 min at 25° C. in 50 mM PBS buffer (pH 7.4) with 1 mM CTAB according to the following procedure. In a test tube, 3.5 mL of 50 mM PBS buffer (pH 7.4) and 40 μL of the stock solution of CTAB were mixed, and then added 20 μL of the stock solution of SSP1 or SSP2. The resulting solution was mixed well, followed by addition of a requisite volume of testing species sample solution. The final volume of the reaction solution was adjusted to 4 mL with 50 mM PBS buffer (pH 7.4). After mixing and then standing for 10 min at room temperature, a 4-mL portion of the reaction solution was transferred into a 1-cm quartz cell to measure fluorescence with λex=380 nm (for SSP1) or 482 nm (SSP2). In the meantime, a blank solution containing no testing species sample was prepared and measured under the same conditions for comparison. […]

A short description of data set [3]: Selectivity: fluorescence response to sulfane sulfur compounds. The conditions noted are these: sulfane sulfurs at 25 μM (H2S2, Cys-polysulfide, S8), probe 5.0 μM, 10 min, PBS pH 7.4, 1 mM CTAB. As to the method: FIGS. 5A-B Fluorescence enhancement (F/F0) of 5.0 μM probes in the presence of various reactive sulfur species. (FIG. 5A) data of SSP1 (Ex/Em=380/458 nm). (FIG. 5B) data of SSP2 (Ex/Em=482/518 nm). The reactions were carried out for 10 min at rt in PBS buffer (50 mM, pH 7.4) with 1 mM CTAB. (1) probe alone; (2) 1 mM Cys; (3) 1 mM GSH; (4) 1 mM Hcy; (5) 100 μM GSSG; (6) 100 μM Na2S; (7) 100 μM Na2S2O3; (8) 100 μM Na2SO3; (9) 100 μM Na2SO4; (10) 25 μM Na2S2; (11) 25 μM Cys-polysulfide; (12) 25 μM S8.
The stock solution of SSP1 (1 mM) and SSP2 (1 mM) were prepared in CH3CN, respectively. The solutions of various testing species were prepared from Cysteine (Cys), GSH, Homocysteine (Hcy), Glutathione disulfide (GSSG), Na2S.9H2O, Na2S2O3, Na2SO3, Na2SO4, Na2S2 in 50 mM PBS buffer. The stock solution of Cetrimonium bromide (CTAB, 100 mM) and S8 (10 mM) were prepared in EtOH, respectively. […]
Unless otherwise noted, all the measurements were carried out for 10 min at 25° C. in 50 mM PBS buffer (pH 7.4) with 1 mM CTAB according to the following procedure. […] After mixing and then standing for 10 min at room temperature, a 4-mL portion of the reaction solution was transferred into a 1-cm quartz cell to measure fluorescence with λex=380 nm (for SSP1) or 482 nm (SSP2). In the meantime, a blank solution containing no testing species sample was prepared and measured under the same conditions for comparison. […]

Data set [4] can be described thus: Effect of pH on probe fluorescence and stability. The conditions noted are these: probe 5.0 μM, 50 mM PBS, 1 mM CTAB. The class given is physicochemical. The procedure: FIGS. 2A-B Fluorescence intensity changes of (FIG. 2A) 5.0 μM SSP1 and (FIG. 2B) 5.0 μM SSP2 at different pH values in the absence (▪) or presence (●) of Na2S2 (25 μM). The reactions were carried out for 10 min at 25° C. in 50 mM PBS buffer with 1 mM CTAB. Data (A) were acquired at 458 nm and excited at 380 nm. Data (B) were acquired at 518 nm and excited at 482 nm.
Unless otherwise noted, all the measurements were carried out for 10 min at 25° C. in 50 mM PBS buffer (pH 7.4) with 1 mM CTAB according to the following procedure. In a test tube, 3.5 mL of 50 mM PBS buffer (pH 7.4) and 40 μL of the stock solution of CTAB were mixed, and then added 20 μL of the stock solution of SSP1 or SSP2. The resulting solution was mixed well, followed by addition of a requisite volume of testing species sample solution. The final volume of the reaction solution was adjusted to 4 mL with 50 mM PBS buffer (pH 7.4). After mixing and then standing for 10 min at room temperature, a 4-mL portion of the reaction solution was transferred into a 1-cm quartz cell to measure fluorescence with λex=380 nm (for SSP1) or 482 nm (SSP2). In the meantime, a blank solution containing no testing species sample was prepared and measured under the same conditions for comparison. All the measurements were repeated three times and data reported were averages.

The conditions of data set [5]: excited at 330 nm in sodium phosphate buffer (0.1 M; pH 7.4); cited from earlier work.
The subject of a further data set is HeLa cells. Put plainly: Fluorescence imaging of H2S2 in HeLa cells. Type of data set: cell-based. To be noted: SSP2 50 μM 20 min. As to the method:
(§1) FIGS. 6A-F Fluorescence images of H2S2 detection in H9c2 cells (a, b, c) and HeLa cells (d, e, f). Cells on glass coverslips were incubated with SSP2 (50 μM) for 20 min, then washed and subjected to different treatments. (a & d) controls (no Na2S2 was added); (b & e) treated with 50 μM Na2S2; (c & f) treated with 100 μM Na2S2.
(§2) H9c2 cells and HeLa cells were grown on glass-bottom culture dishes (Corning Inc.) in DMEM supplemented with 10% (v/v) FBS, penicillin (100 U/mL) and streptomycin (100 μg/mL) at 37° C. under a humidified atmosphere containing 5% CO2. Before use, the adherent cells were washed one time with FBS-free DMEM. For intracellular H2S2 imaging, the cells were incubated with 50 μM SSP2 in FBS-free DMEM (containing 200 μM CTAB) at 37° C. for 20 min. After removal of excess probe and washed with PBS (pH 7.4), the cells were incubated with 50 or 100 uM Na2S2 for 30 min in PBS buffer (pH 7.4, containing 500 μM CTAB). Cell imaging was carried out after washing the cells three times with PBS (pH 7.4).

The next data set concerns H9c2 cells. Put plainly: Fluorescence imaging of H2S2 in H9c2 cells. The class given is cell-based. The conditions noted are these: SSP2 50 μM 20 min. As to the method:
as §1, §2

Where [6] appears, read: then Na2S2 (50 or 100 μM) for 30 min.

On to `O=C(Oc1ccc2ccc(=O)oc2c1)c1ccccc1S` [SSP1], for which the “fluorescence quantum yield (Φ)” value in data set [1] stood at 0.06. The fluorescence intensity increase in data set [2] stood at 25 folds. Besides, the “fluorescence response (enhancement F/F0)” value in data set [3] was 26˜33 folds. In addition, the “hydrolytic stability at basic pH” value in data set [4] is “above pH 8, SSP1 undergoes small amount of hydrolysis”.

For the molecule `O=c1ccc2ccc(O)cc2o1` [7-hydroxycoumarin], the “quantum efficiency of standard” value in data set [5] is 0.76.

Regarding `COc1ccc2c(c1)Oc1cc(OC(=O)c3ccccc3S)ccc1C21OC(=O)c2ccccc21` (stereo not drawn) [SSP2], the “fluorescence quantum yield (Φ)” value in data set [1] came to 0.05. The fluorescence intensity increase in data set [2] is listed as 50 folds. Also, the “fluorescence response (enhancement F/F0)” value in data set [3] is on record as 50˜60 folds. In addition, the “cell fluorescence at 100 μM versus 50 μM Na2S2” value with HeLa cells (Na2S2 30 min) and in the data set with H9c2 cells (Na2S2 30 min) was “obviously stronger fluorescence” throughout. The “cell fluorescence after Na2S2 treatment” value in the data set with HeLa cells (setting [6]) and in the data set with H9c2 cells (setting [6]) was “strong fluorescence” each time. For the same molecule, the “cell fluorescence without Na2S2” value in the data set on HeLa cells (washed, no Na2S2) is “No significant fluorescent cells”; in the data set with H9c2 cells (washed, no Na2S2), “No significant fluorescent cells”. In addition, the “hydrolytic stability at basic pH” value in data set [4] is given as “remains stable up to pH 9”.

The values above are taken from patent US9494592B2, “Reaction-based fluorescent probes for sulfane sulfur and the application in bioimaging” (Washington State University, priority 2013, dated 2016).
